According to patent USRE47193E1, “Selectively substituted quinoline compounds” (EISAI R&D MANAGEMENT CO., LTD., priority 2013, dated 2019):

Test system: NZB/W lupus disease model
Test: NZBxNZW (NZB/W) lupus disease model
Type: in vivo, mouse
Details: for mortality: 33, 100 or 300 mg/kg QD PO, 21 weeks of treatment; for impact on anti-dsDNA titers: after 17 weeks of dosing, at 46 weeks of age
Description: FIG. 2A through FIG. 2C show results of testing ER-899742 in the NZBxNZW strain (abbreviated hereafter as NZBWF1/J or NZB/W) lupus disease model. Figure Legend: Female NZBWF1/J mice were received at 5 weeks of age, baseline bleeds were performed, and mice were monitored for disease progression by following anti-dsDNA titers. At 27 weeks of age, mice were randomized into groups with equivalent median anti-dsDNA titers and treated at 29 weeks of age with Vehicle (Veh; 0.5% methyl-cellulose) alone or 33, 100, or 300 mg/kg once-a-day orally (QD PO). At 46 weeks of age after 17 weeks of treatment mice were bled and tested for anti-dsDNA titers. All mice were sacrificed at 50 weeks of age (21 weeks of compound treatment). (FIG. 2A) Just prior to termination at 50 weeks of age (following 21 weeks of treatment), urine was collected from individual mice, and the Urinary Albumin Creatinine Ratio (UACR, proteinuria) was determined for each animal as an indirect measure of kidney function. (FIG. 2B) Timecourse of mortality observed in this study for the highest and lowest dose groups. […] (FIG. 2C) Impact of treatment on anti-dsDNA titers after 17 weeks of dosing, at 46 weeks of age.
FIG. 4A through FIG. 4C show results of testing ER-899464 in the NZB/W disease model in the same experiment as FIG. 2A. Figure Legend: (FIG. 4A) Just prior to termination at 50 weeks of age (following 21 weeks of treatment), urine was collected from individual mice, and the Urinary Albumin Creatinine Ratio (UACR, proteinuria) was determined for each animal as an indirect measure of kidney function. (FIG. 4B) Summary of mortality observed in this study for the highest and lowest dose groups. […] ([…]) Impact of treatment on anti-dsDNA titers after 17 weeks of dosing, at 46 weeks of age.
Mouse Lupus Disease Models.
Mouse lupus disease model strains. Female NZBWF1/J mice were purchased from Jackson Labs (Bar Harbor, Me.), both of which manifest with spontaneous lupus disease. Female DBA/1 mice were purchased from Harlan Laboratories (Indianapolis, Ind.) and at the indicated ages given an intraperitoneal injection of 0.5 ml pristane (2,6,10,14-Tetramethylpentadecane; Sigma, St. Louis, Mo.) to chemically induce lupus disease or of 0.5 ml PBS to generate age-matched, non-diseased control mice.
Female NZBWF1/J mice were received at 5 weeks of age, baseline bleeds were performed, and mice were monitored for disease progression by following anti-dsDNA titers. At 27 weeks of age, mice were randomized into groups with equivalent median anti-dsDNA titers and treated at 29 weeks of age with Vehicle (Veh; 0.5% methyl-cellulose) alone or 33, 100, or 300 mg/kg once-a-day orally (QD PO). At 46 weeks of age after 17 weeks of treatment, mice were bled and tested for anti-dsDNA titers. All mice were sacrificed at 50 weeks of age (21 weeks of compound treatment).
At the end of the experiment kidneys were collected from the animals tested in FIG. 2A through 2C, fixed in 10% formalin for 24 hours, embedded in paraffin, and H&E stained sections were generated for histopathology assessment in a blinded fashion (Grade 0/1+: WNL to minimal; Grade 2: Mild; Grade 3: Moderate to Marked; Grade 4: Severe).
Assessment of auto-antibody titers by ELISA. Anti-dsDNA, -Sm/nRNP, -RiboP, and -Histone titers were evaluated by standard ELISA approach. Briefly, 96-well EIA/RIA ELISA plates (Corning) were coated with 100 ul of diluted antigen in PBS for 90 minutes at room temperature as follows (final concentrations indicated): 10 U/ml Sm/nRNP complex (Immunovision), 10 ug/ml calf thymus dsDNA (Sigma), 5 U/ml RiboP (Immunovision), and 5 ug/ml Histone (Immunovision). Plates were washed with PBS/0.05% Tween20 (washing buffer) and blocked overnight with PBS/1% BSA (blocking buffer) at 4° C. […]

[1] = several doses between 33 and 300 mg/kg

| SMILES | mortality | impact on anti-dsDNA titers | proteinuria (UACR) [1] | survival [1] | % combined incidence of Grade 3 and 4 (33 mpk) | Number of mice with GN Score 0 (33 mpk QD PO, kidney histopathology, Grade 0/1+: WNL to minimal) | Number of mice with GN Score 2+ (33 mpk, Grade 2: Mild) | Number of mice with GN Score 3+ (33 mpk, Grade 3: Moderate to Marked) | Number of mice with GN Score 4+ (33 mpk, Grade 4: Severe) | % combined incidence of Grade 3 and 4 (100 mpk) | Number of mice with GN Score 0 (100 mpk) | Number of mice with GN Score 2+ (100 mpk) | Number of mice with GN Score 3+ (100 mpk) | Number of mice with GN Score 4+ (100 mpk) | % combined incidence of Grade 3 and 4 (300 mpk) | Number of mice with GN Score 0 (300 mpk) | Number of mice with GN Score 2+ (300 mpk) | Number of mice with GN Score 3+ (300 mpk) | Number of mice with GN Score 4+ (300 mpk) | histological signs of glomerulonephritis [1] |
| --- | --- | --- | --- | --- | --- | --- | --- | --- | --- | --- | --- | --- | --- | --- | --- | --- | --- | --- | --- | --- |
| C[C@@H]1CN(c2ccc(C#N)c3ncccc23)C[C@H](C(=O)NC2CCN(C)CC2)O1 [ER-899464, (2R,6R)-4-(8-cyanoquinolin-5-yl)-6-methyl-N-(1-methylpiperidin-4-yl)morpholine-2-carboxamide] | No mortality was seen in the middle dose group | No statistically significant effect was observed | significantly reduced proteinuria | significant survival benefit | – | – | – | – | – | – | – | – | – | – | – | – | – | – | – | – |
| C[C@@H]1CN(c2ccc(C#N)c3ncccc23)C[C@H](C(=O)N[C@H]2CNC[C@H]2F)O1.Cl [ER-899742, (2R,6R)-4-(8-cyanoquinolin-5-yl)-N-[(3S,4R)-4-fluoropyrrolidin-3-yl]-6-methylmorpholine-2-carboxamide hydrochloride] | No mortality was seen with compound treatment | No statistically significant effect was observed | significantly reduced proteinuria | pronounced survival benefit | 11% | 11 | 5 | 1 | 1 | 6% | 15 | 1 | 1 | 0 | 11% | 9 | 7 | 0 | 2 | significantly reduced |
